Activity calls are given as the source filed them. No cut-off for these calls is given here.
Columns and labels:
Assay type in all cases: functional
[1] = system: MDA-MB-468; experiment: Growth inhibition of human MDA-MB-468 cells at 10 uM after 48 hrs by SRB assay relative to control
[2] = system: SNB-75; experiment: Growth inhibition of human SNB75 cells at 10 uM after 48 hrs by SRB assay relative to control
[3] = system: RXF 393; experiment: Growth inhibition of human RXF393 cells at 10 uM after 48 hrs by SRB assay relative to control
[4] = system: A549; experiment: Growth inhibition of human A549 cells at 10 uM after 48 hrs by SRB assay relative to control
[5] = system: UO-31; experiment: Growth inhibition of human UO31 cells at 10 uM after 48 hrs by SRB assay relative to control; conditions: UO-31, 48 h, read-out: GI
[6] = system: SK-MEL-5; experiment: Growth inhibition of human SK-MEL-5 cells at 10 uM after 48 hrs by SRB assay relative to control; conditions: SK-MEL-5, 48 h, read-out: GI
[7] = system: A498; experiment: Growth inhibition of human A498 cells at 10 uM after 48 hrs by SRB assay relative to control
[8] = system: NCI/ADR-RES; experiment: Growth inhibition of human NCI/ADR-RES cells at 10 uM after 48 hrs by SRB assay relative to control; conditions: read-out: GI
[9] = system: CAKI-1; experiment: Growth inhibition of human Caki1 cells at 10 uM after 48 hrs by SRB assay relative to control
[10] = system: UACC-257; experiment: Growth inhibition of human UACC257 cells at 10 uM after 48 hrs by SRB assay relative to control
[11] = system: HOP-92; experiment: Growth inhibition of human HOP92 cells at 10 uM after 48 hrs by SRB assay relative to control; conditions: HOP-92, 48 h, read-out: GI
[12] = system: MCF7; experiment: Growth inhibition of human MCF7 cells at 10 uM after 48 hrs by SRB assay relative to control
[13] = system: LOX IMVI; experiment: Growth inhibition of human LOXIMVI cells at 10 uM after 48 hrs by SRB assay relative to control; conditions: read-out: GI
[14] = system: OVCAR-8; experiment: Growth inhibition of human OVCAR8 cells at 10 uM after 48 hrs by SRB assay relative to control
[15] = system: NCI-H23; experiment: Growth inhibition of human NCI-H23 cells at 10 uM after 48 hrs by SRB assay relative to control; conditions: NCI-H23, 48 h, read-out: GI
[16] = system: PC-3; experiment: Growth inhibition of human PC3 cells at 10 uM after 48 hrs by SRB assay relative to control; conditions: PC-3, 48 h, read-out: GI
[17] = system: SK-OV-3; experiment: Growth inhibition of human SKOV3 cells at 10 uM after 48 hrs by SRB assay relative to control; conditions: SK-OV-3, 48 h, read-out: GI
[18] = system: U-251; experiment: Growth inhibition of human U251 cells at 10 uM after 48 hrs by SRB assay relative to control; conditions: U-251, 48 h, read-out: GI
[19] = system: MOLT-4; experiment: Growth inhibition of human MOLT4 cells at 10 uM after 48 hrs by SRB assay relative to control; conditions: MOLT-4, 48 h, read-out: GI
[20] = system: NCI-H226; experiment: Growth inhibition of human NCI-H226 cells at 10 uM after 48 hrs by SRB assay relative to control
[21] = system: SK-MEL-2; experiment: Growth inhibition of human SK-MEL-2 cells at 10 uM after 48 hrs by SRB assay relative to control; conditions: SK-MEL-2, 48 h, read-out: GI
[22] = system: OVCAR-3; experiment: Growth inhibition of human OVCAR3 cells at 10 uM after 48 hrs by SRB assay relative to control
[23] = system: OVCAR-4; experiment: Growth inhibition of human OVCAR4 cells at 10 uM after 48 hrs by SRB assay relative to control
[24] = system: HL-60; experiment: Growth inhibition of human HL60 cells at 10 uM after 48 hrs by SRB assay relative to control
[25] = system: KM12; experiment: Growth inhibition of human KM12 cells at 10 uM after 48 hrs by SRB assay relative to control
[26] = system: 786-0; experiment: Growth inhibition of human 786-0 cells at 10 uM after 48 hrs by SRB assay relative to control
[27] = system: CCRF-CEM; experiment: Growth inhibition of human CCRF-CEM cells at 10 uM after 48 hrs by SRB assay relative to control; conditions: read-out: GI
[28] = system: RPMI-8226; experiment: Growth inhibition of human RPMI8226 cells at 10 uM after 48 hrs by SRB assay relative to control
[29] = system: K562; experiment: Growth inhibition of human K562 cells at 10 uM after 48 hrs by SRB assay relative to control; conditions: K562, 48 h, read-out: GI
[30] = system: NCI-H322M; experiment: Growth inhibition of human NCI-H322M cells at 10 uM after 48 hrs by SRB assay relative to control
[31] = system: HT-29; experiment: Growth inhibition of human HT-29 cells at 10 uM after 48 hrs by SRB assay relative to control
[32] = system: HOP-62; experiment: Growth inhibition of human HOP62 cells at 10 uM after 48 hrs by SRB assay relative to control; conditions: HOP-62, 48 h, read-out: GI
[33] = system: HCT-116; experiment: Growth inhibition of human HCT116 cells at 10 uM after 48 hrs by SRB assay relative to control
[34] = system: Malme-3M; experiment: Growth inhibition of human MALME-3M cells at 10 uM after 48 hrs by SRB assay relative to control
[35] = system: Hs-578T; experiment: Growth inhibition of human Hs 578T cells at 10 uM after 48 hrs by SRB assay relative to control
[36] = system: SF-268; experiment: Growth inhibition of human SF268 cells at 10 uM after 48 hrs by SRB assay relative to control
[37] = system: NCI-H522; experiment: Growth inhibition of human NCI-H522 cells at 10 uM after 48 hrs by SRB assay relative to control; conditions: NCI-H522, 48 h, read-out: GI
[38] = system: SNB-19; experiment: Growth inhibition of human SNB19 cells at 10 uM after 48 hrs by SRB assay relative to control
[39] = system: SR; experiment: Growth inhibition of human SR cells at 10 uM after 48 hrs by SRB assay relative to control; conditions: read-out: GI
[40] = system: UACC-62; experiment: Growth inhibition of human UACC62 cells at 10 uM after 48 hrs by SRB assay relative to control

Structure (SMILES)	growth inhibition (GI) [1]	inhibition of growth at 10 µM [5]	inhibition of growth at 10 µM [6]	growth inhibition (GI) [7]	inhibition of growth at 10 µM [8]	growth inhibition (GI) [10]	inhibition of growth at 10 µM [11]	inhibition of growth at 10 µM [13]	growth inhibition (GI) [14]	inhibition of growth at 10 µM [15]	inhibition of growth at 10 µM [16]	inhibition of growth at 10 µM [17]	inhibition of growth at 10 µM [18]	inhibition of growth at 10 µM [19]	growth inhibition (GI) [20]	inhibition of growth at 10 µM [21]	growth inhibition (GI) [22]	growth inhibition (GI) [23]	growth inhibition (GI) [24]	growth inhibition (GI) [26]	further results
COc1ccc(Cc2nnc(SCC(=O)Nc3ccc(C)cc3)n2-c2ccccc2)cc1	inactive	11.4%	1.4%	inactive	6.11%	inactive	8.7%	2.2%	inactive	5.6%	16.3%	7.38%	1.62%	14.9%	inactive	17.3%	inactive	inactive	inactive	inactive	growth inhibition (GI) [2]: inactive; growth inhibition (GI) [3]: inactive; growth inhibition (GI) [4]: inactive; growth inhibition (GI) [9]: inactive; growth inhibition (GI) [12]: inactive; growth inhibition (GI) [25]: inactive; inhibition of growth at 10 µM [27]: 8.16%; growth inhibition (GI) [28]: inactive; inhibition of growth at 10 µM [29]: 9.31%; growth inhibition (GI) [30]: inactive; growth inhibition (GI) [31]: inactive; inhibition of growth at 10 µM [32]: 6.8%; growth inhibition (GI) [33]: inactive; inhibition of growth at 10 µM ([34]; read-out: GI): 1.56%; inhibition of growth at 10 µM ([35]; read-out: GI): 1.15%; growth inhibition (GI) [36]: inactive; inhibition of growth at 10 µM [37]: 19%; growth inhibition (GI) [38]: inactive; inhibition of growth at 10 µM [39]: 17%; inhibition of growth at 10 µM ([40]; UACC-62, 48 h, read-out: GI): 2.9%
COc1ccc(Cc2nnc3sc(SCC(=O)Nc4ccc(C)cc4)nn23)cc1	inactive	13.6%	1.64%	inactive	3.81%	inactive	23.8%	16.7%	inactive	3.12%	11.5%	4.35%	6.5%	2.19%	inactive	14.8%	inactive	inactive	inactive	inactive	inhibition of growth at 10 µM ([2]; SNB-75, 48 h, read-out: GI): 12%; inhibition of growth at 10 µM ([3]; RXF 393, 48 h, read-out: GI): 1.65%; inhibition of growth at 10 µM ([4]; A549, 48 h, read-out: GI): 2.5%; inhibition of growth at 10 µM ([9]; CAKI-1, 48 h, read-out: GI): 11.9%; inhibition of growth at 10 µM ([12]; MCF7, 48 h, read-out: GI): 5.79%; inhibition of growth at 10 µM ([25]; KM12, 48 h, read-out: GI): 3.51%; inhibition of growth at 10 µM [27]: 7.47%; inhibition of growth at 10 µM ([28]; RPMI-8226, 48 h, read-out: GI): 1.58%; inhibition of growth at 10 µM [29]: 7.25%; inhibition of growth at 10 µM ([30]; read-out: GI): 3.14%; inhibition of growth at 10 µM ([31]; HT-29, 48 h, read-out: GI): 1.67%; inhibition of growth at 10 µM [32]: 2%; growth inhibition (GI) [33]: inactive; growth inhibition (GI) [34]: inactive; growth inhibition (GI) [35]: inactive; growth inhibition (GI) [36]: inactive; inhibition of growth at 10 µM [37]: 12.2%; inhibition of growth at 10 µM ([38]; SNB-19, 48 h, read-out: GI): 3.61%; inhibition of growth at 10 µM [39]: 7.23%; growth inhibition (GI) [40]: inactive

Source: ChEMBL document CHEMBL4190322, “Structure-based development of novel triazoles and related thiazolotriazoles as anticancer agents and Cdc25A/B phosphatase inhibitors. Synthesis, in vitro biological evaluation, molecular docking and in silico ADME-T studies” (Eur J Med Chem, 2017)
